Values joined by “and” are separate entries in the source; they are usually repeats but may differ in a detail not shown here. Equal entries are not always repeated.
target: Mitogen-activated protein kinase kinase kinase kinase 1 (Homo sapiens, UniProt Q92918); assay: HPK1-SLP76 TR-FRET ASSAY
Sequence (Q92918 whole entry): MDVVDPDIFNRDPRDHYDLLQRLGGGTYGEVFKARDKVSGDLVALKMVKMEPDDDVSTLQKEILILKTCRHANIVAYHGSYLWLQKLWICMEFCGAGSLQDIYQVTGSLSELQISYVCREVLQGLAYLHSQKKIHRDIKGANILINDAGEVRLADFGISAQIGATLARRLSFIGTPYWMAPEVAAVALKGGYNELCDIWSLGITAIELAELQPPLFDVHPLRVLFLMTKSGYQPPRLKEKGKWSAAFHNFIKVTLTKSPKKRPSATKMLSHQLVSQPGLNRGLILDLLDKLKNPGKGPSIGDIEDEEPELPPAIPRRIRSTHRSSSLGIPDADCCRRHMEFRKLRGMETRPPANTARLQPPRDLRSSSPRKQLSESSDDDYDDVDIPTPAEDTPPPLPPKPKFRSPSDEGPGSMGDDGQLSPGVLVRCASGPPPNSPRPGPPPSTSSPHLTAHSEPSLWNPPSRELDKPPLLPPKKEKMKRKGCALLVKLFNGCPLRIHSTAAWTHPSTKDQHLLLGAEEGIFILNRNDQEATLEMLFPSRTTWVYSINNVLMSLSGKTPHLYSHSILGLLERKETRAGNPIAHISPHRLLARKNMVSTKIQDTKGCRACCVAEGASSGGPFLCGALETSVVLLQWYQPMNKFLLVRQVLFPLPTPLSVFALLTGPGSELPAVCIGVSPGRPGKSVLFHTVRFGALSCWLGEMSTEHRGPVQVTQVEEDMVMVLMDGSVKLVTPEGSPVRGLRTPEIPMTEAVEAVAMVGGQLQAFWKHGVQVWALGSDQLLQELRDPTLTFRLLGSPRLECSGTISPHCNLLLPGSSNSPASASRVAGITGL

| SMILES | IC50 |
| --- | --- |
| Cc1c(-c2cc3nc(Nc4ccc([C@@H]5CCN(C)C5=O)cc4)ncc3c(N)c2F)cnc2c1NCCO2 [WO2022098806, Compound 2-146] | 0.05 nM |
| Cc1c(-c2cc3nc(Nc4ccc([C@H]5CCN(C)C5=O)cc4)ncc3c(N)c2F)cnc2c1NCCO2 [WO2022098806, Compound 2-147] | 0.08 nM |
| Cc1c(-c2cc3nc(Nc4ccc(C5(S(C)(=O)=O)CC5)cc4)ncc3c(N)c2F)cnc2c1NCCO2 [WO2022098806, Compound 2-148] | 0.08 nM |
| Cc1c(-c2cc3nc(Nc4ccc(CS(=O)(=O)CC(F)(F)F)cc4)ncc3c(N)c2F)cnc2c1NCCO2 [WO2022098806, Compound 2-149] | 0.19 nM |
| Cc1c(-c2cc3nc(Nc4ccc5c(c4)CN(C)CC5(C)C)ncc3c(N)c2F)cnc2c1NCCO2 [WO2022098806, Compound 2-150] | 0.06 nM |
| Cc1c(-c2cc3nc(Nc4ccc5c(c4)CN(C)CC54CC4)ncc3c(N)c2F)cnc2c1NCCO2 [WO2022098806, Compound 2-151] | 0.05 nM and 0.27 nM |
| CN1Cc2cc(Nc3ncc4c(N)c(F)c(-c5cnc6c(c5Cl)NCCO6)cc4n3)ccc2C2(CC2)C1 [WO2022098806, Compound 2-152] | 0.07 nM |
| Cc1c(N)cncc1-c1cc2nc(Nc3ccc4c(c3)CN(C)CC43CC3)ncc2c(N)c1F [WO2022098806, Compound 2-153] | 0.05 nM |
| Cc1c(-c2cc3nc(Nc4ccc(CS(C)(=O)=O)cc4F)ncc3c(N)c2F)cnc2c1NCCO2 [WO2022098806, Compound 2-155] | 0.06 nM |
| Cc1c(-c2cc3nc(Nc4ccc(CS(=O)(=O)C(C)C)cc4)ncc3c(N)c2F)cnc2c1NCCO2 [WO2022098806, Compound 2-157] | 0.07 nM |
| Cc1c(-c2cc3nc(Nc4ccc5c(c4)CCN(C)C5)ncc3c(N)c2F)cnc2c1NCCO2 [WO2022098806, Compound 2-158] | 0.03 nM |
| Cc1c(-c2c(F)c(N)c3cnc(Nc4ccc(N5CCOC5=O)cc4)nc3c2Cl)cnc2c1NCCO2 [WO2022098806, Compound 2-159] | 0.24 nM |
| Cc1c(-c2cc3nc(Nc4ccc5c(c4)CN(C)CC5)ncc3c(N)c2F)cnc2nc[nH]c12 [WO2022098806, Compound 2-162] | 0.13 nM |
| Cc1c(-c2cc3nc(Nc4ccc(CS(C)(=O)=O)cc4)ncc3c(N)c2F)cnc2c1NCC(C)(C)O2 [WO2022098806, Compound 2-165] | 0.1 nM |
| Cc1c(-c2cc3nc(Nc4ccc5c(c4)CN(C)CC5)ncc3c(N)c2F)cnc2c1NCC(C)(C)O2 [WO2022098806, Compound 2-166] | 0.06 nM |
| COc1cc(CS(=O)(=O)C(C)C)ccc1Nc1ncc2c(N)c(F)c(-c3cnc4c(c3C)NCC(C)(C)O4)cc2n1 [WO2022098806, Compound 2-168] | 0.1 nM |
| COc1cc2c(cc1Nc1ncc3c(N)c(F)c(-c4cnc5c(c4C)NCCO5)c(Cl)c3n1)CN(C)CC21CC1 [WO2022098806, Compound 2-169] | 0.06 nM |
| Cc1c(-c2cc3nc(Nc4ccc([S+](C)[O-])cc4)ncc3c(N)c2F)cnc2c1NCCO2 (centres undefined) [WO2022098806, Compound 2-170] | 0.04 nM |
| Cc1c(-c2cc3nc(Nc4cc5c(cc4F)CCN(C(C)C)C5)ncc3c(N)c2F)cnc2c1NCCO2 [WO2022098806, Compound 2-171] | 0.05 nM |
| Cc1ccc(F)cc1-c1cc2nc(Nc3ccc(CS(C)(=O)=O)cc3)ncc2c(N)c1F [WO2022098806, Compound 2-172] | 25 nM |
| CCc1ccc(Nc2ncc3c(N)c(F)c(-c4cnc5c(c4C)NCCO5)cc3n2)cn1 [WO2022098806, Compound 2-173] | 0.13 nM |
| Cc1ccc(F)cc1-c1cc2nc(Nc3ccc4c(c3)CN(C)CC4)ncc2c(N)c1F [WO2022098806, Compound 2-174] | 11 nM |

| SMILES | IC50 |
| --- | --- |
| COc1cc(C2CC2)ccc1Nc1ncc2c(N)c(F)c(-c3cnc4c(c3C)NCCO4)cc2n1 [WO2022098806, Compound 2-176] | 17 nM |
| Cc1c(-c2cc3nc(Nc4ccc(CC(C)(C)O)cc4)ncc3c(N)c2F)cnc2c1NCCO2 [WO2022098806, Compound 2-178] | 0.09 nM |
| Cc1c(-c2c(F)c(N)c3cnc(Nc4ccc5c(c4)CN(C)CC5)nc3c2Cl)cnc2c1NCCO2 [WO2022098806, Compound 2-180] | 0.06 nM and 0.02 nM |
| Cc1c(-c2cc3nc(Nc4cnc5c(c4)CN(C)CC5)ncc3c(N)c2F)cnc2c1NCCO2 [WO2022098806, Compound 2-183] | 0.04 nM |
| Cc1c(-c2c(F)c(N)c3cnc(Nc4cc5c(cc4F)CCN(C)C5)nc3c2Cl)cnc2c1NCCO2 [WO2022098806, Compound 2-184] | 0.09 nM |
| CNC(=O)C(F)(F)c1ccc(Nc2ncc3c(N)c(F)c(-c4cnc5c(c4C)NCCO5)cc3n2)cc1 [WO2022098806, Compound 2-186] | 0.14 nM |
| CNC(=O)C(C)(C)c1ccc(Nc2ncc3c(N)c(F)c(-c4cnc5c(c4C)NCCO5)cc3n2)cc1 [WO2022098806, Compound 2-187] | 0.08 nM |
| COc1cc2c(cc1Nc1ncc3ccc(N4CC5(CCOC5)OC4=O)cc3n1)CN(C)CC2 (centres undefined) [WO2022098806, Compound 3-3] | 391 nM |
| COc1cc2c(cc1Nc1ncc3ccc(N4CC(CO)OC4=O)cc3n1)CN(C)CC2 (centres undefined) [WO2022098806, Compound 3-4] | 9.36 nM |
| COc1cc2c(cc1Nc1ncc3ccc(N4CC5(CCCNCC5)OC4=O)cc3n1)CN(C)CC2 (centres undefined) [WO2022098806, Compound 3-5] | 205 nM and 93 nM |
| COc1cc2c(cc1Nc1ncc3ccc(N4CC(C)(CO)OC4=O)cc3n1)CN(C)CC2 (centres undefined) [WO2022098806, Compound 3-7] | 45 nM |
| COc1cc2c(cc1Nc1ncc3ccc(N4CC(CN)OC4=O)cc3n1)CN(C)CC2 (centres undefined) [WO2022098806, Compound 3-11] | 82 nM |
| CNCC1CN(c2ccc3cnc(Nc4cc5c(cc4OC)CCN(C)C5)nc3c2)C(=O)O1 (centres undefined) [WO2022098806, Compound 3-12] | 94 nM |
| CC[C@@H]1COC(=O)N1c1ccc2cnc(Nc3cc4c(cc3OC)CCN(C)C4)nc2c1 [WO2022098806, Compound 3-13] | 1.05 nM |
| CC[C@H]1COC(=O)N1c1ccc2cnc(Nc3cc4c(cc3OC)CCN(C)C4)nc2c1 [WO2022098806, Compound 3-14] | 25 nM |
| CC[C@@H]1COC(=O)N1c1cc(N)c2cnc(Nc3cc4c(cc3OC)CCN(C)C4)nc2c1 [WO2022098806, Compound 3-15] | 3.24 nM |
| CC[C@H]1COC(=O)N1c1cc(N)c2cnc(Nc3cc4c(cc3OC)CCN(C)C4)nc2c1 [WO2022098806, Compound 3-16] | 0.17 nM |
| COc1cc2c(cc1Nc1ncc3c(N)cc(N4C(=O)OC[C@@H]4C)cc3n1)CN(C)CC2 [WO2022098806, Compound 3-17] | 0.08 nM |
| COc1cc2c(cc1Nc1ncc3ccc(N4CCCC(CN5CCCC5=O)C4)cc3n1)CN(C)CC2 (centres undefined) [WO2022098806, Compound 3-20] | 771 nM |
| COc1cc2c(cc1Nc1ncc3ccc(Nc4ccc5c(c4)C(=O)NCC5)cc3n1)CN(C)CC2 [WO2022098806, Compound 3-21] | 30 nM |
| COc1cc2c(cc1Nc1ncc3ccc(NCC4CNC(=O)O4)cc3n1)CN(C)CC2 (centres undefined) [WO2022098806, Compound 3-26] | 149 nM |
| COc1cc2c(cc1Nc1ncc3ccc(Nc4cccc(C#N)n4)cc3n1)CN(C)CC2 [WO2022098806, Compound 3-27] | 23 nM |

Second part, the compound after the results:

| IC50 | SMILES |
| --- | --- |
| 21 nM | COc1cc2c(cc1Nc1ncc3ccc(Nc4cccc(CO)n4)cc3n1)CN(C)CC2 [WO2022098806, Compound 3-29] |
| 148 nM | COc1cc2c(cc1Nc1ncc3ccc(N(C)CC4CNC(=O)O4)cc3n1)CN(C)CC2 (centres undefined) [WO2022098806, Compound 3-30] |
| 29 nM | COc1cc2c(cc1Nc1ncc3ccc(Nc4cccc(CO)c4)cc3n1)CN(C)CC2 [WO2022098806, Compound 3-31] |
| 18 nM | COc1cc2c(cc1Nc1ncc3ccc(Nc4cccc(S(C)(=O)=O)c4)cc3n1)CN(C)CC2 [WO2022098806, Compound 3-33] |
| 4.18 nM | COc1cc2c(cc1Nc1ncc3ccc(Nc4nc(S(C)(=O)=O)ccc4F)cc3n1)CN(C)CC2 [WO2022098806, Compound 3-36] |
| 73 nM | COc1cc2c(cc1Nc1ncc3ccc(NCC4CCS(=O)(=O)C4)cc3n1)CN(C)CC2 (centres undefined) [WO2022098806, Compound 3-37] |
| 228 nM | COc1cc2c(cc1Nc1ncc3ccc(NC4CCCC(O)C4)cc3n1)CN(C)CC2 (centres undefined) [WO2022098806, Compound 3-39] |
| 292 nM | COc1cc2c(cc1Nc1ncc3ccc(NCC4CCC(=O)N4)cc3n1)CN(C)CC2 (centres undefined) [WO2022098806, Compound 3-45] |
| 97 nM and 98 nM | COc1cc2c(cc1Nc1ncc3ccc(NC4CCN(C)C4=O)cc3n1)CN(C)CC2 (centres undefined) [WO2022098806, Compound 3-49] |
| 189 nM | COc1cc2c(cc1Nc1ncc3ccc(N4CC(O)(C(F)(F)F)C4)cc3n1)CN(C)CC2 [WO2022098806, Compound 3-54] |
| 365 nM | COc1cc2c(cc1Nc1ncc3ccc(NC[C@@H]4CC(=O)N(C)C4)cc3n1)CN(C)CC2 [WO2022098806, Compound 3-59] |
| 807 nM | COc1cc2c(cc1Nc1ncc3ccc(N4CC5CCS(=O)(=O)C5C4)cc3n1)CN(C)CC2 (centres undefined) [WO2022098806, Compound 3-60] |
| 111 nM | COc1cc2c(cc1Nc1ncc3ccc(NCC4(C)CCC4)cc3n1)CN(C)CC2 [WO2022098806, Compound 3-62] |
| 90 nM | COc1cc2c(cc1Nc1ncc3ccc(NCC4(C)CCOC4)cc3n1)CN(C)CC2 (centres undefined) [WO2022098806, Compound 3-75] |
| 0.1 nM | COc1cc(S(C)(=O)=O)ccc1Nc1ncc2c(N)cc(N3C(=O)OC[C@H]3C)cc2n1 [WO2022098806, Compound 3-76] |
| 0.25 nM | CNC(=O)c1ccc(Nc2ncc3c(N)cc(N4C(=O)OC[C@@H]4C)cc3n2)c(OC)c1 [WO2022098806, Compound 3-79] |
| 2.81 nM | COc1cc2c(cc1Nc1ncc3c(N)cc(Nc4cc(CO)ccn4)cc3n1)CN(C)CC2 [WO2022098806, Compound 3-80] |
| 15 nM | COc1cc2c(cc1Nc1ncc3ccc(OCc4ccc(N5CCNCC5)nc4)cc3n1)CN(C)CC2 [WO2022098806, Compound 4-1] |
| 224 nM | COc1cc2c(cc1Nc1ncc3ccc(Oc4ccc(C(=O)N5CCN(C(C)=O)CC5)cc4)cc3n1)CN(C)CC2 [WO2022098806, Compound 4-7] |
| 2.19 nM | COc1cc2c(cc1Nc1ncc3ccc(Oc4ccc5c(c4)CNCC5)cc3n1)CN(C)CC2 [WO2022098806, Compound 4-9] |

Source: BindingDB's records for patent WO2022098806 (MERCK SHARP & DOHME LLC, 2022)
